Literature values in patent US5547668A, “Conjugates of folate anti-effector cell antibodies” (The Board of Trustees of The University of Illinois, priority 1995, dated 1996).

Test system: FR

C#CCN(Cc1ccc2nc(N)[nH]c(=O)c2c1)c1ccc(C(=O)N[C@@H](CCC(=O)O)C(=O)O)cc1 [CB3717, N^10-propargyl-5,8-dideazafolic acid]
affinity for the FR: bind with high affinity

C#CCN(Cc1ccc2nc(C)[nH]c(=O)c2c1)c1ccc(C(=O)N[C@@H](CCC(=O)O)C(=O)O)cc1 [ICI-198,583, 2-deamino-2-methyl-N^10-propargyl-5,8-dideazafolic acid]
affinity for the FR: bind with high affinity

CN(Cc1cnc2nc(N)nc(N)c2n1)c1ccc(C(=O)N[C@@H](CCC(=O)O)C(=O)O)cc1 [MTX, methotrexate]
affinity for the FR: does not bind to MTX with high affinity
